Experimental data published in patent US9211310B2, “Use of a Chinese medicine composition in preparing medicaments for treating secondary prevention of myocardial infarction” (TASLY PHARMACEUTICAL GROUP CO., LTD, priority 2010, dated 2015).

System: patients after acute myocardial infarction
Assay: Angina pectoris score, total and single (frequency/attack times, duration, pain degree, dose of nitroglycerin), same clinical trial
Format: in vivo, human
Source text: In order to better understand the present invention, a multi-center, randomized, double-blind, double-dummy and positive drug controlled trial had been conducted. 3508 patients who were in accordance with the diagnostic standards of AMI for 28 days to 2 years and differentiated as Qi deficiency and blood stagnation syndrome by TCM were studied. 0.5 g Chinese medicine composition prepared by the method of EXAMPLE 1 (Coded as QSYQ) was administrated half an hour after meal, 3 times per day. Aspirine was used as a positive drug. The patients were treated for 1 year and observed for 6 months.
They included the overall survival time, angina pectoris score, TCM symptom score and life quality score, where angina pectoris score, TCM symptom score and life quality score were evaluated at randomization, in 1st, 3rd, 6th, 9th, 12th month after treatment and 18th month after follow-up.
(§1) Total angina pectoris score was described on every observation period and the change of observation in comparison with baseline. T-test or Wilcoxon rank sum test were used for inter-group comparison. Grade of total score was evaluated on every observation and Wilcoxon rank sum test was used for inter-group comparison. T-test and Pairing signed rank sum test were used for analyzing the change of total score on every observation between groups in comparison with the baseline.
(§2) Single angina pectoris score was depicted on every observation time-point and the change of observation in comparison with baseline. Wilcoxon rank sum test was used for inter-group comparison. Pairing signed rank sum test was used for analyzing the change of total score on every observation between groups in comparison with the baseline.
as §1, with “comparison with the baseline. T-test” for “comparison with baseline. T-test”
as §2, with “described” for “depicted”

CC(=O)Oc1ccccc1C(=O)O [Control group, aspirine]
change of attack times score, patients (%) (1 month after treatment-baseline, change 0, FAS): (74.81%) | change of attack times score, patients (%) (1 month after treatment-baseline, change 0, PP): (74.53%) | change of attack times score, patients (%) (1 month after treatment-baseline, change 1, FAS): (2.07%) | change of attack times score, patients (%) (1 month after treatment-baseline, change 1, PP): (1.95%) | change of attack times score, patients (%) (1 month after treatment-baseline, change 2, FAS): (2.35%) | change of attack times score, patients (%) (1 month after treatment-baseline, change 2, PP): (2.08%) | change of attack times score, patients (%) (1 month after treatment-baseline, change 3, FAS): (0.11%) | change of attack times score, patients (%) (1 month after treatment-baseline, change 3, PP): (0.13%) | change of attack times score, patients (%) (1 month after treatment-baseline, change 4, FAS): (0.06%) | change of attack times score, patients (%) (1 month after treatment-baseline, change 4, PP): (0.07%) | change of attack times score, patients (%) (1 month after treatment-baseline, change −1, FAS): (7.11%) | change of attack times score, patients (%) (1 month after treatment-baseline, change −1, PP): (7.06%) | change of attack times score, patients (%) (1 month after treatment-baseline, change −2, FAS): (11.99%) | change of attack times score, patients (%) (1 month after treatment-baseline, change −2, PP): (12.63%) | change of attack times score, patients (%) (1 month after treatment-baseline, change −3, FAS): (0.34%) | change of attack times score, patients (%) (1 month after treatment-baseline, change −3, PP): (0.40%) | change of attack times score, patients (%) (1 month after treatment-baseline, change −4, FAS): (1.03%) | change of attack times score, patients (%) (1 month after treatment-baseline, change −4, PP): (1.08%) | change of attack times score, patients (%) (1 month after treatment-baseline, change −5, FAS): (0.00%) | change of attack times score, patients (%) (1 month after treatment-baseline, change −5, PP): (0.00%) | change of attack times score, patients (%) (1 month after treatment-baseline, change −6, FAS): (0.11%) | change of attack times score, patients (%) (1 month after treatment-baseline, change −6, PP): (0.07%) | attack times score, patients (%) (3 months after treatment, score 0, FAS): (40.02%) | attack times score, patients (%) (3 months after treatment, score 0, PP): (40.46%) | attack times score, patients (%) (3 months after treatment, score 1, FAS): (14.11%) | attack times score, patients (%) (3 months after treatment, score 1, PP): (13.92%) | attack times score, patients (%) (3 months after treatment, score 2, FAS): (41.46%) | attack times score, patients (%) (3 months after treatment, score 2, PP): (41.89%) | attack times score, patients (%) (3 months after treatment, score 4, FAS): (4.30%) | attack times score, patients (%) (3 months after treatment, score 4, PP): (3.60%) | attack times score, patients (%) (3 months after treatment, score 6, FAS): (0.11%) | attack times score, patients (%) (3 months after treatment, score 6, PP): (0.14%) | change of attack times score, patients (%) (3 months after treatment-baseline, change 0, FAS): (65.52%) | change of attack times score, patients (%) (3 months after treatment-baseline, change 0, PP): (65.15%) | change of attack times score, patients (%) (3 months after treatment-baseline, change 1, FAS): (3.10%) | change of attack times score, patients (%) (3 months after treatment-baseline, change 1, PP): (2.79%) | change of attack times score, patients (%) (3 months after treatment-baseline, change 2, FAS): (2.24%) | change of attack times score, patients (%) (3 months after treatment-baseline, change 2, PP): (1.83%) | change of attack times score, patients (%) (3 months after treatment-baseline, change 3, FAS): (0.00%) | change of attack times score, patients (%) (3 months after treatment-baseline, change 4, FAS): (0.17%) | change of attack times score, patients (%) (3 months after treatment-baseline, change 4, PP): (0.14%) | change of attack times score, patients (%) (3 months after treatment-baseline, change −1, FAS): (10.96%) | change of attack times score, patients (%) (3 months after treatment-baseline, change −1, PP): (11.21%) | change of attack times score, patients (%) (3 months after treatment-baseline, change −2, FAS): (15.78%) | change of attack times score, patients (%) (3 months after treatment-baseline, change −2, PP): (16.51%) | change of attack times score, patients (%) (3 months after treatment-baseline, change −3, FAS): (0.46%) | change of attack times score, patients (%) (3 months after treatment-baseline, change −3, PP): (0.54%) | change of attack times score, patients (%) (3 months after treatment-baseline, change −4, FAS): (1.43%) | change of attack times score, patients (%) (3 months after treatment-baseline, change −4, PP): (1.56%) | change of attack times score, patients (%) (3 months after treatment-baseline, change −5, FAS): (0.11%) | change of attack times score, patients (%) (3 months after treatment-baseline, change −5, PP): (0.14%) | change of attack times score, patients (%) (3 months after treatment-baseline, change −6, FAS): (0.23%) | change of attack times score, patients (%) (3 months after treatment-baseline, change −6, PP): (0.14%) | attack times score, patients (%) (6 months after treatment, score 0, FAS): (44.55%) | attack times score, patients (%) (6 months after treatment, score 0, PP): (45.98%) | attack times score, patients (%) (6 months after treatment, score 1, FAS): (15.54%) | attack times score, patients (%) (6 months after treatment, score 1, PP): (15.92%) | attack times score, patients (%) (6 months after treatment, score 2, FAS): (36.81%) | attack times score, patients (%) (6 months after treatment, score 2, PP): (36.17%) | attack times score, patients (%) (6 months after treatment, score 4, FAS): (3.04%) | attack times score, patients (%) (6 months after treatment, score 4, PP): (1.85%) | attack times score, patients (%) (6 months after treatment, score 6, FAS): (0.06%) | attack times score, patients (%) (6 months after treatment, score 6, PP): (0.07%) | change of attack times score, patients (%) (6 months after treatment-baseline, change 0, FAS): (57.95%) | change of attack times score, patients (%) (6 months after treatment-baseline, change 0, PP): (56.80%) | change of attack times score, patients (%) (6 months after treatment-baseline, change 1, FAS): (2.47%) | change of attack times score, patients (%) (6 months after treatment-baseline, change 1, PP): (1.92%) | change of attack times score, patients (%) (6 months after treatment-baseline, change −1, FAS): (15.20%) | change of attack times score, patients (%) (6 months after treatment-baseline, change −1, PP): (16.07%) | change of attack times score, patients (%) (6 months after treatment-baseline, change −2, FAS): (18.70%) | change of attack times score, patients (%) (6 months after treatment-baseline, change −2, PP): (19.92%) | change of attack times score, patients (%) (6 months after treatment-baseline, change −3, FAS): (0.92%) | change of attack times score, patients (%) (6 months after treatment-baseline, change −3, PP): (1.10%) | change of attack times score, patients (%) (6 months after treatment-baseline, change −4, FAS): (1.78%) | change of attack times score, patients (%) (6 months after treatment-baseline, change −4, PP): (1.92%) | change of attack times score, patients (%) (6 months after treatment-baseline, change −5, FAS): (0.00%) | change of attack times score, patients (%) (6 months after treatment-baseline, change −5, PP): (0.00%) | change of attack times score, patients (%) (6 months after treatment-baseline, change −6, FAS): (0.34%) | change of attack times score, patients (%) (6 months after treatment-baseline, change −6, PP): (0.27%) | attack times score, patients (%) (9 months after treatment, score 0, FAS): (47.31%) | attack times score, patients (%) (9 months after treatment, score 0, PP): (49.06%) | attack times score, patients (%) (9 months after treatment, score 1, FAS): (20.30%) | attack times score, patients (%) (9 months after treatment, score 1, PP): (21.62%) | attack times score, patients (%) (9 months after treatment, score 2, FAS): (30.22%) | attack times score, patients (%) (9 months after treatment, score 2, PP): (28.34%) | attack times score, patients (%) (9 months after treatment, score 4, FAS): (2.06%) | attack times score, patients (%) (9 months after treatment, score 4, PP): (0.83%) | attack times score, patients (%) (9 months after treatment, score 6, FAS): (0.11%) | attack times score, patients (%) (9 months after treatment, score 6, PP): (0.14%) | attack times score, patients (%) (12 months after treatment, score 0, FAS): (52.12%) | attack times score, patients (%) (12 months after treatment, score 0, PP): (55.03%) | attack times score, patients (%) (12 months after treatment, score 1, FAS): (22.02%) | attack times score, patients (%) (12 months after treatment, score 1, PP): (23.88%) | attack times score, patients (%) (12 months after treatment, score 2, FAS): (23.91%) | attack times score, patients (%) (12 months after treatment, score 2, PP): (20.53%) | attack times score, patients (%) (12 months after treatment, score 4, FAS): (1.89%) | attack times score, patients (%) (12 months after treatment, score 4, PP): (0.56%) | attack times score, patients (%) (12 months after treatment, score 6, FAS): (0.06%) | change of attack times score, patients (%) (12 months after treatment-baseline, change 0, FAS): (45.61%) | change of attack times score, patients (%) (12 months after treatment-baseline, change 0, PP): (41.86%) | change of attack times score, patients (%) (12 months after treatment-baseline, change 1, FAS): (2.07%) | change of attack times score, patients (%) (12 months after treatment-baseline, change 1, PP): (1.33%) | change of attack times score, patients (%) (12 months after treatment-baseline, change 2, FAS): (1.72%) | change of attack times score, patients (%) (12 months after treatment-baseline, change 2, PP): (1.19%) | change of attack times score, patients (%) (12 months after treatment-baseline, change 3, FAS): (0.06%) | change of attack times score, patients (%) (12 months after treatment-baseline, change 4, FAS): (0.17%) | change of attack times score, patients (%) (12 months after treatment-baseline, change 4, PP): (0.14%) | change of attack times score, patients (%) (12 months after treatment-baseline, change −1, FAS): (22.89%) | change of attack times score, patients (%) (12 months after treatment-baseline, change −1, PP): (25.44%) | change of attack times score, patients (%) (12 months after treatment-baseline, change −2, FAS): (23.01%) | change of attack times score, patients (%) (12 months after treatment-baseline, change −2, PP): (25.02%) | change of attack times score, patients (%) (12 months after treatment-baseline, change −3, FAS): (0.86%) | change of attack times score, patients (%) (12 months after treatment-baseline, change −3, PP): (1.05%) | change of attack times score, patients (%) (12 months after treatment-baseline, change −4, FAS): (3.16%) | change of attack times score, patients (%) (12 months after treatment-baseline, change −4, PP): (3.56%) | change of attack times score, patients (%) (12 months after treatment-baseline, change −5, FAS): (0.06%) | change of attack times score, patients (%) (12 months after treatment-baseline, change −5, PP): (0.07%) | change of attack times score, patients (%) (12 months after treatment-baseline, change −6, FAS): (0.40%) | change of attack times score, patients (%) (12 months after treatment-baseline, change −6, PP): (0.35%) | attack times score, patients (%) (Baseline, score 0, FAS): (27.54%) | attack times score, patients (%) (Baseline, score 0, PP): (26.99%) | attack times score, patients (%) (Baseline, score 1, FAS): (9.06%)
